Patent US20150140002A1, “USE OF A PCSK9 INHIBITOR TO TREAT […]” (Sanofi, priority 2013, published 2015)
Marks after values point to notes of the source that are not given here.

Tested on: patients with primary hypercholesterolemia (heFH and non-FH) who are intolerant to statins
Assay: Example 3: randomized double-blind trial mAb316P versus ezetimibe (atorvastatin calibrator arm), lipid parameters
Assay type: in vivo, human
Conditions: for patients who reached LDL-C goal at week 24: goal <70 mg/dL very high risk, <100 mg/dL moderate and high risk; for LS mean LDL-C value at week 24: in vivo; for change in LDL-C level from baseline: week 24
Description: The present study was a randomized, double-blind, double-dummy, active-controlled, parallel-group, multi-national, multi-center study in patients with primary hypercholesterolemia and moderate, high, or very high CV risk who are intolerant to statins. The study design is illustrated in FIG. 7.
Primary Efficacy Endpoint: The primary efficacy endpoint was the percent change in calculated LDL-C from baseline to week 24, which was defined as: 100× (calculated LDL-C value at week 24—calculated LDL-C value at baseline)/calculated LDL-C value at baseline. A baseline LDL-C value was needed for each patient as the baseline calculated LDL-C value was the last LDL-C level obtained before the first double-blind study drug injection.
Total-C, HDL-C, TG, ApoB, ApoA-1, and Lp(a) were directly measured by a central laboratory as per a predetermined schedule. Low-density lipoprotein cholesterol was calculated using the Friedewald formula at all visits (except week −15 and the follow-up visit). If TG values exceeded 400 mg/dL (4.52 mmol/L), then the central lab measured (via the beta quantification method) the LDL-C rather than calculate it. Non-HDL-C was calculated by subtracting HDL-C from the total-C. Ratio ApoB/ApoA-1 was calculated.
The double-blind period efficacy endpoint analysis results in the order of statistical hierarchical testing as specified in the above protocol (with multiple testing controlled at the 0.05 significance level) is set forth in Table 12. Primary and key secondary efficacy analyses were performed comparing mAb316P-treated patients to ezetimibe-treated patients. For clarification, the ITT analysis is defined for patients in the ITT population and includes all endpoint assessments in an analysis window, regardless of study treatment dosing status (i.e. includes post-treatment assessments). The on-treatment analysis is defined for patients in the mITT population and includes all endpoint assessments from the first double-blind study drug (capsule or injection, whichever comes first) up to 21 days after the last double-blind study drug injection, or 3 days after the last capsule intake, whichever came first (i.e. includes assessments in the efficacy treatment period). Note: A result is statistically significant if the p-value is s 0.05, in the order of the hierarchical testing.

[1] = WK24, ITT analysis, listed as EZE
[2] = WK24, ITT analysis, listed as Ezetimibe

Molecule: O=C1[C@H](CC[C@H](O)c2ccc(F)cc2)[C@@H](c2ccc(O)cc2)N1c1ccc(F)cc1 [ezetimibe, reference compound]
- Apo A-1 LS mean percent change from baseline (WK12, ITT analysis): LS mean: 3.9%
- Apo B LS mean percent change from baseline (WK12, ITT analysis): LS mean: −11.6%
- Fasting Triglycerides LS mean percent change from baseline (WK12, ITT analysis): LS mean: −9.4%
- HDL-C LS mean percent change from baseline (WK12, ITT analysis): LS mean: 7.6%
- LDL-C LS mean percent change from baseline (WK12, ITT analysis): LS mean: −15.6%
- Lp(a) LS mean percent change from baseline (WK12, ITT analysis): LS mean: −4.5%
- Non-HDL-C LS mean percent change from baseline (WK12, ITT analysis): LS mean: −15.8%
- Total Cholesterol LS mean percent change from baseline (WK12, ITT analysis): LS mean: −11.6%
- LDL-C LS mean percent change from baseline (WK12, on-treatment analysis): LS mean: −18.0%
- Apo A-1 LS mean percent change from baseline (WK24, ITT analysis): LS mean: 2.9%
- Fasting Triglycerides LS mean percent change from baseline (WK24, ITT analysis): LS mean: −3.5%
- HDL-C LS mean percent change from baseline (WK24, ITT analysis): LS mean: 6.8%
- LDL-C LS mean percent change from baseline (WK24, ITT analysis): −14.6%
- Proportion with LDL-C <70 mg/dL (WK24, ITT analysis): Proportion = 0.8%
- Proportion with Very High CV LDL-C <70 mg/dL OR Moderate/High CV LDL-C <100 mg/dL (WK24, ITT analysis): Proportion = 4.1%
- Total Cholesterol LS mean percent change from baseline (WK24, ITT analysis): LS mean: −10.9%
- Apo B LS mean percent change from baseline [1]: −11.2* %
- LDL-C LS mean percent change from baseline [1]: -14.6%
- Lp(a) LS mean percent change from baseline [1]: −7.3* %
- Non-HDL-C LS mean percent change from baseline [1]: −14.6* %
- Apo B LS mean percent change from baseline [2]: LS mean: −11.2%
- LDL-C LS mean percent change from baseline [2]: LS mean: −14.6%
- Lp(a) LS mean percent change from baseline [2]: LS mean: −7.3%
- Non-HDL-C LS mean percent change from baseline [2]: LS mean: −14.6%
- Apo B LS mean percent change from baseline (WK24, on-treatment analysis): LS mean: −14.4%
- LDL-C LS mean percent change from baseline (WK24, on-treatment analysis): LS mean: −17.1%
- Non-HDL-C LS mean percent change from baseline (WK24, on-treatment analysis): LS mean: −17.1%
- Proportion with LDL-C <70 mg/dL (WK24, on-treatment analysis): Proportion = 0.8%
- Proportion with Very High CV LDL-C <70 mg/dL OR Moderate/High CV LDL-C <100 mg/dL (WK24, on-treatment analysis): Proportion = 4.2%
- patients who reached LDL-C goal at week 24: 4.4%
- LS mean LDL-C value at week 24: 159.9 mg/dL
- change in LDL-C level from baseline: -33 mg/dL

Molecule: mAb316P: human anti-PCSK9 antibody; heavy chain SEQ ID NO:5, light chain SEQ ID NO:9; HCVR SEQ ID NO:1, LCVR SEQ ID NO:6
- Apo A-1 Diff mAb316P vs ezetimibe (WK12, ITT analysis): Diff: 1.6%
- Apo A-1 LS mean percent change from baseline (WK12, ITT analysis): LS mean: 5.5%
- Apo B Diff mAb316P vs ezetimibe (WK12, ITT analysis): Diff: −24.5%
- Apo B LS mean percent change from baseline (WK12, ITT analysis): LS mean: −36.1%
- Fasting Triglycerides Diff mAb316P vs ezetimibe (WK12, ITT analysis): Diff: 1.3%
- Fasting Triglycerides LS mean percent change from baseline (WK12, ITT analysis): LS mean: −8.1%
- HDL-C Diff mAb316P vs ezetimibe (WK12, ITT analysis): Diff: 1.4%
- HDL-C LS mean percent change from baseline (WK12, ITT analysis): LS mean: 9.0%
- LDL-C Diff mAb316P vs ezetimibe (WK12, ITT analysis): Diff: −31.5%
- LDL-C LS mean percent change from baseline (WK12, ITT analysis): LS mean: −47.0%
- Lp(a) Diff mAb316P vs ezetimibe (WK12, ITT analysis): Diff: −17.2%
- Lp(a) LS mean percent change from baseline (WK12, ITT analysis): LS mean: −21.7%
- Non-HDL-C Diff mAb316P vs ezetimibe (WK12, ITT analysis): Diff: −25.7%
- Non-HDL-C LS mean percent change from baseline (WK12, ITT analysis): LS mean: −25.7%
- Total Cholesterol Diff mAb316P vs ezetimibe (WK12, ITT analysis): Diff: −21.1%
- Total Cholesterol LS mean percent change from baseline (WK12, ITT analysis): LS mean: −32.7%
- LDL-C Diff mAb316P vs ezetimibe (WK12, on-treatment analysis): Diff: −33.1%
- LDL-C LS mean percent change from baseline (WK12, on-treatment analysis): LS mean: −51.2%
- Apo A-1 Diff mAb316P vs ezetimibe (WK24, ITT analysis): Diff: 1.9%
- Apo A-1 LS mean percent change from baseline (WK24, ITT analysis): LS mean: 4.8%
- Fasting Triglycerides Diff mAb316P vs ezetimibe (WK24, ITT analysis): Diff: −5.6%
- Fasting Triglycerides LS mean percent change from baseline (WK24, ITT analysis): LS mean: −9.2%
- HDL-C Diff mAb316P vs ezetimibe (WK24, ITT analysis): Diff: 0.9%
- HDL-C LS mean percent change from baseline (WK24, ITT analysis): LS mean: 7.7%
- Proportion with LDL-C <70 mg/dL (WK24, ITT analysis): Proportion = 32.5%
- Proportion with Very High CV LDL-C <70 mg/dL OR Moderate/High CV LDL-C <100 mg/dL (WK24, ITT analysis): Proportion = 41.3%
- Total Cholesterol Diff mAb316P vs ezetimibe (WK24, ITT analysis): Diff: −20.8%
- Total Cholesterol LS mean percent change from baseline (WK24, ITT analysis): LS mean: −31.8%
- Apo B Diff mAb316P vs ezetimibe (WK24, on-treatment analysis): Diff: −28.2%
- Apo B LS mean percent change from baseline (WK24, on-treatment analysis): LS mean: −42.6%
- LDL-C Diff mAb316P vs ezetimibe (WK24, on-treatment analysis): Diff: −35.1%
- LDL-C LS mean percent change from baseline (WK24, on-treatment analysis): LS mean: −52.2%
- Non-HDL-C Diff mAb316P vs ezetimibe (WK24, on-treatment analysis): Diff: −29.8%
- Non-HDL-C LS mean percent change from baseline (WK24, on-treatment analysis): LS mean: −46.9%
- Proportion with LDL-C <70 mg/dL (WK24, on-treatment analysis): Proportion = 39.0%
- Proportion with Very High CV LDL-C <70 mg/dL OR Moderate/High CV LDL-C <100 mg/dL (WK24, on-treatment analysis): Proportion = 50.4%
- patients who reached LDL-C goal at week 24: 41.9%
- LS mean LDL-C value at week 24: 108.5 mg/dL
- change in LDL-C level from baseline: -84 mg/dL
